Strand notation (5' to 3'): a small letter for the sugar, then the base; units joined by * are phosphorothioate-linked, units joined directly phosphodiester-linked; [ ] holds rarer units or linkages, { } end groups; capitals alone tell only the bases. k = constrained ethyl (cEt); [5mC] = 5-methylcytosine; d = 2'-deoxy (DNA)
Tested on: Yap1 mRNA
Assay: Dose-dependent inhibition of human Yap1 in A-431 cells (Example 7, 10,000 cells per well, RTS36584)
Format: cell-based
Settings: free uptake
Procedure: Modified oligonucleotides described in the studies above were tested at various doses in A-431 cells. Cultured A-431 cells at a density of 10,000 cells per well were treated using free uptake with modified oligonucleotides diluted to concentrations described in the tables below. After approximately 48 hours, Yap1 mRNA levels were measured as previously described using the Human Yap1 primer-probe set RTS36584. Yap1 mRNA levels were normalized to total RNA content, as measured by RIBOGREEN®. Results are presented in the tables below as percent control of the amount of Yap1 mRNA relative to untreated control cells (% UTC). IC50s were calculated using a linear regression on a log/linear plot of the data in excel.

[1] = Table 60, 15.6 nM, A-431 cells 10,000 cells per well, 48 hours
[2] = Table 60, 62.5 nM, A-431 cells 10,000 cells per well, 48 hours
[3] = Table 60, 4000.00 nM, A-431 cells 10,000 cells per well, 48 hours
[4] = Table 60, A-431 cells 10,000 cells per well
[5] = Table 59, 15.6 nM, A-431 cells 10,000 cells per well, 48 hours
[6] = Table 59, 62.5 nM, A-431 cells 10,000 cells per well, 48 hours
[7] = Table 59, 4000.00 nM, A-431 cells 10,000 cells per well, 48 hours
[8] = Table 59, A-431 cells 10,000 cells per well
[9] = 15.6 nM, A-431 cells, 10,000 cells per well, approximately 48 hours
[10] = 62.5 nM, A-431 cells, 10,000 cells per well, approximately 48 hours
[11] = 4000.00 nM, A-431 cells, 10,000 cells per well, approximately 48 hours
[12] = A-431 cells, approximately 48 hours, linear regression on log/linear plot
[13] = Table 57, 15.6 nM, A-431 cells 10,000 cells per well, 48 hours
[14] = Table 57, 62.5 nM, A-431 cells 10,000 cells per well, 48 hours
[15] = Table 57, 4000.00 nM, A-431 cells 10,000 cells per well, 48 hours
[16] = Table 57, A-431 cells 10,000 cells per well
[17] = Table 56, 15.6 nM, A-431 cells 10,000 cells per well, 48 hours
[18] = Table 56, 62.5 nM, A-431 cells 10,000 cells per well, 48 hours
[19] = Table 56, 4000.00 nM, A-431 cells 10,000 cells per well, 48 hours
[20] = Table 56, A-431 cells 10,000 cells per well

## 958543 (kA*k[5mC]*k[5mC]*dT*dT*dA*dT*dA*dG*dT*dA*dT*dT*k[5mC]*kT*kA; antisense) [compound 958543]
[1]
  Yap1 mRNA, % UTC: 84 % UTC
[2]
  Yap1 mRNA, % UTC: 63 % UTC
[3]
  Yap1 mRNA, % UTC: 18 % UTC
[4]
  IC50: 100 nM

## 958563 (kA*kG*k[5mC]*dT*dT*dT*dT*dG*d[5mC]*d[5mC]*dA*dG*dG*kA*kG*kA; antisense) [compound 958563]
[5]
  Yap1 mRNA, % UTC: 94 % UTC
[6]
  Yap1 mRNA, % UTC: 54 % UTC
[7]
  Yap1 mRNA, % UTC: 10 % UTC
[8]
  IC50: 100 nM

## 958625 (kT*kG*k[5mC]*dT*dG*dG*dG*dA*dT*dT*dG*dA*dT*kA*kT*kT; antisense) [compound 958625]
[9]
  Yap1 mRNA, % UTC: 86 % UTC
[10]
  Yap1 mRNA, % UTC: 59 % UTC
[11]
  Yap1 mRNA, % UTC: 17 % UTC
[12]
  IC50: 100 nM

## 958569 (kA*kG*k[5mC]*d[5mC]*dT*dT*dA*dG*dA*dG*dT*d[5mC]*dA*kA*kT*kT; antisense) [compound 958569]
Table 61, 15.6 nM, A-431 cells 10,000 cells per well, 48 hours
  Yap1 mRNA, % UTC: 82 % UTC
Table 61, 62.5 nM, A-431 cells 10,000 cells per well, 48 hours
  Yap1 mRNA, % UTC: 49 % UTC
Table 61, 4000.00 nM, A-431 cells 10,000 cells per well, 48 hours
  Yap1 mRNA, % UTC: 7 % UTC
Table 61, A-431 cells 10,000 cells per well
  IC50: 100 nM

## 958795 (kT*kA*kT*dT*d[5mC]*d[5mC]*dG*d[5mC]*dA*dT*dT*dG*d[5mC]*k[5mC]*kT*kA; antisense) [compound 958795]
[9]
  Yap1 mRNA, % UTC: 90 % UTC
[10]
  Yap1 mRNA, % UTC: 69 % UTC
[11]
  Yap1 mRNA, % UTC: 20 % UTC
[12]
  IC50: 200 nM

## 958718 (kG*kA*kA*d[5mC]*dA*d[5mC]*dT*dA*dT*dA*dG*d[5mC]*dT*kT*kG*kG; antisense) [compound 958718]
[1]
  Yap1 mRNA, % UTC: 104 % UTC
[2]
  Yap1 mRNA, % UTC: 80 % UTC
[3]
  Yap1 mRNA, % UTC: 24 % UTC
[4]
  IC50: 200 nM

## 958686 (k[5mC]*kG*k[5mC]*dA*dA*dT*dA*dT*dA*dG*dT*d[5mC]*dT*kA*kT*kA; antisense) [compound 958686]
[13]
  Yap1 mRNA, % UTC: 75 % UTC
[14]
  Yap1 mRNA, % UTC: 69 % UTC
[15]
  Yap1 mRNA, % UTC: 18 % UTC
[16]
  IC50: 100 nM

## 958369 (antisense kT*kT*kA*dT*d[5mC]*dT*dA*dG*d[5mC]*dT*dT*dG*dG*kT*kG*kG) [compound 958369]
[17]
  Yap1 mRNA, % UTC: 107 % UTC
[18]
  Yap1 mRNA, % UTC: 68 % UTC
[19]
  Yap1 mRNA, % UTC: 17 % UTC
[20]
  IC50: 170 nM

## 958726 (k[5mC]*kT*kG*dT*d[5mC]*dA*dG*dT*dT*dA*dT*d[5mC]*d[5mC]*kT*kA*kT; antisense) [compound 958726]
[17]
  Yap1 mRNA, % UTC: 99 % UTC
[18]
  Yap1 mRNA, % UTC: 70 % UTC
[19]
  Yap1 mRNA, % UTC: 16 % UTC
[20]
  IC50: 170 nM

## 958538 (kA*kT*k[5mC]*d[5mC]*dA*dG*dG*dG*dT*d[5mC]*dA*dA*dT*kT*kT*kT; antisense) [compound 958538]
[1]
  Yap1 mRNA, % UTC: 101 % UTC
[2]
  Yap1 mRNA, % UTC: 77 % UTC
[3]
  Yap1 mRNA, % UTC: 30 % UTC
[4]
  IC50: 300 nM

## 958668 (kG*kT*kG*dA*dT*d[5mC]*dT*dG*dT*dG*dA*dG*dA*kG*kG*kT; antisense) [compound 958668]
[5]
  Yap1 mRNA, % UTC: 81 % UTC
[6]
  Yap1 mRNA, % UTC: 38 % UTC
[7]
  Yap1 mRNA, % UTC: 5 % UTC
[8]
  IC50: 100 nM

## 958798 (kT*kG*k[5mC]*dA*dG*dT*dA*dT*dA*dA*dT*dA*dT*k[5mC]*k[5mC]*kT; antisense) [compound 958798]
[5]
  Yap1 mRNA, % UTC: 101 % UTC
[6]
  Yap1 mRNA, % UTC: 61 % UTC
[7]
  Yap1 mRNA, % UTC: 12 % UTC
[8]
  IC50: 100 nM

## 958490 (kG*kT*kG*dA*d[5mC]*dA*dT*dG*dA*dA*dG*d[5mC]*dA*kT*k[5mC]*kT; antisense) [compound 958490]
[9]
  Yap1 mRNA, % UTC: 81 % UTC
[10]
  Yap1 mRNA, % UTC: 54 % UTC
[11]
  Yap1 mRNA, % UTC: 13 % UTC
[12]
  IC50: 100 nM

## 958781 (kG*kT*k[5mC]*dA*dT*d[5mC]*dT*dA*dT*dG*dT*dG*dT*k[5mC]*k[5mC]*kT; antisense) [compound 958781]
[13]
  Yap1 mRNA, % UTC: 77 % UTC
[14]
  Yap1 mRNA, % UTC: 45 % UTC
[15]
  Yap1 mRNA, % UTC: 10 % UTC
[16]
  IC50: 100 nM
